Data published in article PMC9570088, “Phytochemicals with Chemopreventive Activity Obtained from the Thai Medicinal Plant Mammea siamensis (Miq.) T. Anders.: Isolation and Structure Determination of New Prenylcoumarins with Inhibitory Activity against Aromatase” (International Journal of Molecular Sciences, 2022).
“Also recorded” adds a separate entry of the source.

Key:
[1] = target: T1, human recombinant aromatase (Homo sapiens, UniProt P11511); test: Inhibitory effects against human recombinant aromatase (DBF fluorescence assay); format: biochemical; conditions: substrate DBF; mean, N = 3
T1 construct: purchased BD Biosciences (Heidelberg, Germany)
T1 sequence (P11511 1-503): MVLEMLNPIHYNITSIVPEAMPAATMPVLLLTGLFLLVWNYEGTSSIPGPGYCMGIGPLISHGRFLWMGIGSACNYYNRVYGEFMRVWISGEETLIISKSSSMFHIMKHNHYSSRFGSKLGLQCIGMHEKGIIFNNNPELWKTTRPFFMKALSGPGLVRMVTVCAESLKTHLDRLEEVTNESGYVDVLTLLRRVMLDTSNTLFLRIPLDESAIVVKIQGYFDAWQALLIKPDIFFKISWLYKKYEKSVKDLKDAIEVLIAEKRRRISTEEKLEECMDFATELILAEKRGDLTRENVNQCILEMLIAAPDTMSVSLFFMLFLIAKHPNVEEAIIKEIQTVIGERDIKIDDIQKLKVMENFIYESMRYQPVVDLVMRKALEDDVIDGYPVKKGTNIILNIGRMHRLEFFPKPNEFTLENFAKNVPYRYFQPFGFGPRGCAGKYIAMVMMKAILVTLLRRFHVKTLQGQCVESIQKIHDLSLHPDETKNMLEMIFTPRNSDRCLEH
Protocol: Dibenzylfluorescein (DBF) and human CYP19 + P450 reductase SUPERSOMES (human recombinant aromatase) were purchased from BD Biosciences (Heidelberg, Germany) and testosterone from Tokyo Chemical Industry Co., Ltd. (Tokyo, Japan). The other chemicals used in this study were purchased from Wako Pure Chemical Industries, Co., Ltd. (Osaka, Japan).
The experiments were performed according to a previously described method. Briefly, a test sample was dissolved in dimethyl sulfoxide (DMSO), and the solution was diluted with potassium phosphate buffer (50 mM, pH 7.4) containing MgCl2 (0.5 mM) to obtain the test sample solution (concentration of DMSO: 2%). An enzyme/substrate solution in the buffer (20 µL, 1.6 µM DBF, 8 nM human recombinant aromatase) and the test sample solution (20 µL) were mixed in a 96-well half-area black microplate (Greiner Bio-One, Frickenhausen, Germany) at 37 °C for 10 min. The enzymatic reaction was initiated by adding NADPH solution (40 µL, 500 µM) at 37 °C for 30 min. After 30 min of incubation, NaOH (30 µL, 2 mM) was added, and the reaction mixture was incubated at 37 °C for 2 h to induce fluorescent signals (final DMSO concentration, 0.5%; aromatase, 2 nM; and NADPH, 250 µM). Fluorescence was measured using a fluorescence microplate reader (SH-9000, CORONA […] Co., Ltd., Ibaraki, Japan) at an excitation wavelength of 435 nm and emission wavelength of 535 nm. Experiments were performed in triplicate, and the IC50 values were determined graphically.

[2] = target: T1, human recombinant aromatase; test: Kinetic analysis of inhibitory activity against human recombinant aromatase using Lineweaver-Burk plots (testosterone substrate, estradiol EIA); format: biochemical; conditions: for Ki: testosterone 0.4–4 µM as substrate, secondary plot of Lineweaver–Burk, N = 3
Source text: In the assay system, we fixed the enzyme concentration, changed the substrate concentration, and obtained the kinetic parameters of the enzyme-catalyzed reaction using Lineweaver–Burk double reciprocal plot 1/[V] vs. 1/[S]. The inhibition constant Ki indicates the potency of an inhibitor and equals the concentration required to produce half-maximal inhibition. The Ki value was obtained from the intersection of the secondary plot with the x-axis (apparent Km/Vmax vs. inhibitor).
Experiments were performed using a previously described protocol, modified by using various concentrations of testosterone (0.4–4 µM) as substrates instead of DBF and the plate was heated at 37 °C for 15 min. After the reaction, the enzyme was inactivated by heating in a boiling water bath for 2 min. An estradiol EIA kit (Oxford Biomedical Research, Inc., Oxford, MI, USA) was used to develop an estradiol standard curve to determine the concentration of estradiol produced and to correlate the concentration of estradiol with the reaction velocity. The mode of inhibition was analyzed using the Lineweaver–Burk plot of the inverse of the reaction velocity of estradiol plotted on the vertical axis and the inverse of the final concentration of the substrate on the horizontal axis, with and without the test substance (Figure S27).

Row | IC50 [1] [µM] | Ki [2] [µM] | SMILES | mode of inhibition of aromatase ([2]; Lineweaver–Burk plots)
1 | 9.1 | 2.3 | C=C(C)c1cc2c(o1)c(C(=O)CC(C)C)c(O)c1c(-c3ccccc3)cc(=O)oc12 [compound 5, mammeasin O] | competitively inhibit; also recorded: competitive inhibition; also recorded: competitive inhibitors
2 | 11.1 | 7.1 | CC[C@H](O)c1cc(=O)oc2c(C(=O)CC(C)C)c(O)c3c(c12)OC(C)(CCC=C(C)C)C=C3 (stereo partly drawn) [compound 10, Mammeasin E] | 
3 | 23.2 | 11.3 | CCCC(=O)c1c(O)c(CC=C(C)C)c(O)c2c(C(CC)OC(C)=O)cc(=O)oc12 (stereo not drawn) [compound 38, Mammea E/BC] | 
4 | 12.4 | 12.3 | CCC(C)C(=O)c1c(O)c2c(c3c([C@@H](O)CC)cc(=O)oc13)OC(C)(CCC=C(C)C)C=C2 (stereo partly drawn) [compound 11, Mammeasin F] | 
